{
  "source": "patent US20250127906A1",
  "about": "“SMALL-MOLECULE DEGRADERS OF CDK8 AND CDK19” (University of South Carolina, priority 2021, published 2025)",
  "key": {"CDK8 [1]": {"target": "T1, CDK8 (Homo sapiens, UniProt P49336)", "assay": "CDK8 degradation in other human cell lines (22Rv1, MV4-11, HAP-1, HTB-185, SAOS2, SJSA-1)", "type": "cell-based", "design": "endogenous in cells", "details": "24-hr treatment", "from_the_text": "(§1) FIG. 5 illustrates the effects of the novel PROTACs HP8580, IA7843 and IA7886 on CDK8 and CDK19 degradation in other human cell lines, including 22Rv1 prostate cancer (expressing more CDK19 than CDK8), MV4-11 (AML) and HAP-1 (CML) leukemia cell lines, HTB-185 medulloblastoma, and SAOS2 and SJSA-1 osteosarcoma (the latter expressing only CDK19 but not CDK8)."}, "KMS-12-BM cells": {"system": "KMS-12-BM cells", "assay": "Concentration dependence of KMS-12-BM growth inhibition (CCK-8 assay)", "type": "cell-based", "details": "Homo sapiens, 96 h, over 4 days", "experimental": "Concentration dependence of KMS-12-BM growth inhibition over 4 days was determined for BI-1347 CDK8/19 kinase inhibitor and IA7886 PROTAC using CCK-8 assay (FIG. 13B)."}, "Jurkat cells": {"system": "Jurkat cells", "assay": "Wash-off growth study in Jurkat cells", "type": "cell-based, human", "details": "pre-treated 200 nM for 8 days, then drug-free vs drug-containing media for 8 days", "experimental": "We also compared the stability of short-term growth inhibition induced by a PROTAC and a kinase inhibitor in a wash-off study in Jurkat cells. In the experiment shown in FIG. 11C, Jurkat cells were pre-treated with 200 nM BI-1347 or IA7886 for 8 days before removal of drug-containing media and further cultured in either drug-containing (200 nM) or drug-free media for 8 days before counting cell numbers. Removal of BI-1347 led to 7.1 fold increase of the cell number while removal of IA7886 increased the cell number only 1.8 fold (FIG. 11C)."}, "CCL12": {"system": "CCL12", "assay": "CCL12 mRNA expression in CT26 tumors in Balb/c mice (QPCR)", "type": "in vivo", "details": "oral gavage 20 mg/kg, 2, 8 or 24 hrs after dosing", "experimental": "CT26 cells were injected subcutaneously into syngeneic Balb/c female mice and allowed to grow to 150˜200 mm^3. Tumor-bearing mice then received PROTACs IA7882 or IA7886 by oral gavage at 20 mg/kg in 30% propylene glycol/70% PEG-400 vehicle. Tumors were collected 2, 8 or 24 hrs after dosing and used to measure protein levels of CDK8, pS727 STAT1 and total STAT1 (by western blotting) and mRNA expression of CCL12, a gene that is inhibited by different CDK8/19 inhibitors in CT26 tumors in vivo (by QPCR)."}, "CDK8 [2]": {"target": "T1, CDK8", "assay": "CDK8 degradation in Loucy T-cell leukemia cells lacking Cyclin C", "type": "cell-based", "design": "endogenous in cells; host or cells: Loucy", "details": "Loucy cells (lacking CCNC), 24 hr treatment", "from_the_text": "(§2) This cell line, however, is unique in lacking Cyclin C (CCNC), the binding partner of CDK8/19. To test if the absence of CDK8-bound CCNC was responsible for the loss of IA7843 CDK8-degrading activity, we have tested the effect of IA7843 on a derivative of HEK-293cells with CRISPR-mediated knockout of CCNC."}, "CDK8/19-regulated genes": {"system": "CDK8/19-regulated genes", "assay": "QPCR of CDK8/19-regulated genes in HEK-293 wild-type and CDK8/19 double-knockout cells", "type": "cell-based, human", "details": "for effect on expression of CDK8/19-regulated genes: 200 nM, 3-day treatment", "experimental": "CDK8/19 act as transcriptional regulators, and therefore we tested the effects of 3-day treatment with 200 nM PROTAC IA7886 along with 200 nM CDK8/19 kinase inhibitor BI-1347 on a series of CDK8/19-regulated genes, using QPCR.\nWe have also compared the stability of transcriptional changes induced by a PROTAC and by a kinase inhibitor. In the experiment shown in FIG. 10A, HEK-293 cells were treated with 200 nM of BI-1347 or IA7886 for 3 days, and then the inhibitors were washed off and the restoration of transcriptional changes was monitored 24 hrs and 48 hrs after wash-off."}, "SK-MM-2 cells": {"system": "SK-MM-2 cells", "assay": "SK-MM-2 multiple myeloma cell growth over 20 days continuous treatment", "type": "cell-based", "details": "BI1347 200 nM, Senexin C 1 μM, IA7886 200 nM, IA7843 1 μM", "experimental": "The following CDK8/19 kinase inhibitors were tested for their effects on MM cell lines over 20 days continuous treatment: CDK8/19 kinase inhibitors BI1347 (200 nM) and Senexin C (1 μM), BI1347-derived PROTAC IA7886 (200 nM) and Senexin C-derived PROTAC IA7843 (1 μM). 1-4 million cells were treated with vehicle control (0.1% DMSO), or CDK8/19 kinase inhibitors or PROTACs for 20 days. Every 4 days, cells were counted using BioRAD TC20 Automated Cell Counter with trypan blue staining, and the same number of cells were passaged to a new T25 flask to propagate under the same treatment conditions."}, "CDK19 [3]": {"target": "T2, CDK19 (Homo sapiens, UniProt Q9BWU1)", "assay": "CDK19 degradation in other human cell lines (22Rv1, MV4-11, HAP-1, HTB-185, SAOS2, SJSA-1)", "type": "cell-based", "design": "endogenous in cells", "details": "24-hr treatment", "from_the_text": "as §1"}, "CDK19 [4]": {"target": "T2, CDK19", "assay": "CDK19 degradation in Loucy T-cell leukemia cells lacking Cyclin C", "type": "cell-based", "design": "endogenous in cells; host or cells: Loucy", "details": "Loucy cells (lacking CCNC), 24 hr treatment", "from_the_text": "as §2"}},
  "data": [
    {"smiles": "O=C(CCCNc1cccc2c1C(=O)N(C1CCC(=O)NC1=O)C2=O)NCCCCCCCCCCC(=O)N1CCN(C(=O)Cn2cc(-c3ccc(-c4cncc5ccccc45)cc3)cn2)CC1", "note": "(centres unmarked) [IA7886, 4-[[2-(2,6-dioxo-3-piperidyl)-1,3-dioxo-isoindolin-4-yl]amino]-N-[11-[4-[2-[4-[4-(4-isoquinolyl)phenyl]pyrazol-1-yl]acetyl]piperazin-1-yl]-11-oxo-undecyl]butanamide]", "values": [
      {"measurement": "CDK8 degradation (in words)", "setting": "CDK8 [1]", "result": "significantly degraded CDK8 and CDK19 in all the tested cell lines"},
      {"measurement": "IC50", "setting": "KMS-12-BM cells", "result": 18, "unit": "nM"},
      {"measurement": "increase of the cell number upon removal of drug", "setting": "Jurkat cells", "result": 1.8, "unit": "fold"},
      {"measurement": "levels of CCL12 mRNA in tumors", "setting": "CCL12", "result": "decreased in tumors treated with IA7882 or IA7886 2 hrs or 8 hrs (but not 24 hrs) after dosing"},
      {"measurement": "CDK8 degradation (in words)", "setting": "CDK8 [2]", "result": "efficiently degraded CDK8 and CDK19"},
      {"measurement": "effect on expression of CDK8/19-regulated genes", "setting": "CDK8/19-regulated genes; CDK8/19 double-knockout (dKO) 293 cells", "result": "had no effect in dKO cells"},
      {"measurement": "stability of transcriptional changes after wash-off", "setting": "CDK8/19-regulated genes; HEK-293, 200 nM for 3 days, then 24 hrs and 48 hrs after wash-off", "result": "maintained even 48 hrs after wash-off"},
      {"measurement": "effect on expression of CDK8/19-regulated genes", "setting": "CDK8/19-regulated genes; wild-type HEK-293 cells", "result": "had similar effects on the expression of the tested genes"},
      {"measurement": "growth inhibition over 20 days, order of efficacy", "setting": "SK-MM-2 cells", "result": "BI1347<IA7886<Senexin C<IA7843"},
      {"measurement": "CDK19 degradation (in words)", "setting": "CDK19 [3]", "result": "significantly degraded CDK8 and CDK19 in all the tested cell lines"},
      {"measurement": "CDK19 degradation (in words)", "setting": "CDK19 [4]", "result": "efficiently degraded CDK8 and CDK19"}
    ]}
  ]
}
